Tested on: skin
Experiment: Affymetrix microarray of skin, DBP-4 hr and analogs vs. untreated; gene selection by log-2 fold change, Wilcoxon, Kendall tau (Tables 8, 9)
Format: in vivo, mouse
Settings: for Wilcoxon: DBP-4 hr vs. untreated; for Kendall: Kendall tau, expression vs. outcome
[1] = gene #535 Tmem93 NM_001168470_at
[2] = gene #536 Nfkb2 NM_001177369_at
[3] = gene #537 Nfkb2 NM_001177370_at
[4] = gene #538 Zfp518b NM_001177902_at
[5] = gene #541 Meis1 NM_001193271_at
[6] = gene #542 Bcar1 NM_001198839_at
[7] = gene #543 Dcaf11 NM_001199009_at
[8] = gene #544 Rabgef1 NM_001199059_at
[9] = gene #545 4931408A02Rik NM_001199210_at

Q: Which “Log2 Expression Level” value (gene #56 of Table 8) does the source give for CCCCOC(=O)c1ccccc1C(=O)OCCCC [DBP, dibutylphthalate] here?
A: 10.17

Q: What about the “Log2 Expression Level” value (gene #57 of Table 8) of the same compound?
A: 8.92

Q: What about the “Log2 Expression Level” value (gene #58 of Table 8) of the same compound?
A: 9.48

Q: What about the “Log2 Expression Level” value (gene #59 of Table 8) of the same compound?
A: 8.72

Q: What about the “Log2 Expression Level” value (gene #60 of Table 8) of the same compound?
A: 7.73

Q: What about the “Log2 Expression Level” value (gene #61 of Table 8) of the same compound?
A: 12.15

Q: And the “Log2 Expression Level” value (gene #62 of Table 8)?
A: 8.52

Q: And the “Log2 Expression Level” value (gene #63 of Table 8)?
A: 11.36

Q: And the “Log2 Expression Level” value (gene #64 of Table 8)?
A: 11.47

Q: And the “Log2 Expression Level” value (gene #65 of Table 8)?
A: 7.88

Q: And the “Log2 Expression Level” value (gene #66 of Table 8)?
A: 8.85

Q: And the “Log2 Expression Level” value (gene #67 of Table 8)?
A: 5.48

Q: What about the “Log2 Expression Level” value (gene #68 of Table 8) of the same compound?
A: 10.24

Q: And the “Log2 Expression Level” value (gene #69 of Table 8)?
A: 6.54

Q: And the “Log2 Expression Level” value (gene #70 of Table 8)?
A: 5.48

Q: What about the “Log2 Expression Level” value (gene #71 of Table 8) of the same compound?
A: 8.51

Q: What about the “Log2 Expression Level” value (gene #72 of Table 8) of the same compound?
A: 9.12

Q: And the “Log2 Expression Level” value (gene #73 of Table 8)?
A: 7.67

Q: What about the “Log2 Expression Level” value (gene #74 of Table 8) of the same compound?
A: 7.70

Q: What about the “Log2 Expression Level” value (gene #75 of Table 8) of the same compound?
A: 9.61

Q: And the “Log2 Expression Level” value (gene #76 of Table 8)?
A: 5.46

Q: What about the “Log2 Expression Level” value (gene #77 of Table 8) of the same compound?
A: 9.71

Q: And the “Log2 Expression Level” value (gene #78 of Table 8)?
A: 10.76

Q: And the “Log2 Expression Level” value (gene #79 of Table 8)?
A: 8.09

Q: What about the “Log2 Expression Level” value (gene #80 of Table 8) of the same compound?
A: 13.23

Q: What about the “Log2 Expression Level” value (gene #81 of Table 8) of the same compound?
A: 6.69

Q: What about the “Log2 Expression Level” value (gene #82 of Table 8) of the same compound?
A: 6.28

Q: What about the “Log2 Expression Level” value (gene #83 of Table 8) of the same compound?
A: 7.59

Q: And the “Log2 Expression Level” value (gene #84 of Table 8)?
A: 8.32

Q: What about the “Log2 Expression Level” value (gene #85 of Table 8) of the same compound?
A: 7.84

Q: What about the “Log2 Expression Level” value (gene #86 of Table 8) of the same compound?
A: 7.16

Q: And the “Log2 Expression Level” value (gene #87 of Table 8)?
A: 9.56

Q: What about the “Log2 Expression Level” value (gene #88 of Table 8) of the same compound?
A: 8.67

Q: And the “Log2 Expression Level” value (gene #89 of Table 8)?
A: 6.04

Q: And the “Log2 Expression Level” value (gene #90 of Table 8)?
A: 10.84

Q: And the “Log2 Expression Level” value (gene #91 of Table 8)?
A: 8.25

Q: And the “Log2 Expression Level” value (gene #92 of Table 8)?
A: 7.56

Q: And the “Log2 Expression Level” value (gene #93 of Table 8)?
A: 9.98

Q: What about the “Log2 Expression Level” value (gene #94 of Table 8) of the same compound?
A: 8.85

Q: And the “Log2 Expression Level” value (gene #95 of Table 8)?
A: 7.22

Q: And the “Log2 Expression Level” value (gene #96 of Table 8)?
A: 8.79

Q: What about the “Log2 Expression Level” value (gene #97 of Table 8) of the same compound?
A: 6.04

Q: And the “Log2 Expression Level” value (gene #98 of Table 8)?
A: 5.99

Q: And the “Log2 Expression Level” value (gene #99 of Table 8)?
A: 10.05

Q: And the “Log2 Expression Level” value (gene #100 of Table 8)?
A: 8.07

Q: And the Wilcoxon [1]?
A: No

Q: And the Kendall [1]?
A: Yes

Q: What about the Wilcoxon [2] of the same compound?
A: No

Q: And the Kendall [2]?
A: Yes

Q: What about the Wilcoxon [3] of the same compound?
A: No

Q: What about the Kendall [3] of the same compound?
A: Yes

Q: What about the Wilcoxon [4] of the same compound?
A: No

Q: What about the Kendall [4] of the same compound?
A: Yes

Q: What about the Wilcoxon (gene #539 Ccm2 NM_001190343_at) of the same compound?
A: No

Q: And the Kendall (gene #539 Ccm2 NM_001190343_at)?
A: Yes

Q: What about the Wilcoxon (gene #540 Ccm2 NM_001190344_at) of the same compound?
A: No

Q: What about the Kendall (gene #540 Ccm2 NM_001190344_at) of the same compound?
A: Yes

Q: What about the Wilcoxon [5] of the same compound?
A: No

Q: What about the Kendall [5] of the same compound?
A: Yes

Q: And the Wilcoxon [6]?
A: No

Q: And the Kendall [6]?
A: Yes

Q: What about the Wilcoxon [7] of the same compound?
A: No

Q: And the Kendall [7]?
A: Yes

Q: And the Wilcoxon [8]?
A: No

Q: And the Kendall [8]?
A: Yes

Q: What about the Wilcoxon [9] of the same compound?
A: No

Q: What about the Kendall [9] of the same compound?
A: Yes

Q: What about the Wilcoxon (gene #546 Cav1 NM_007616_at) of the same compound?
A: No

Q: What about the Kendall (gene #546 Cav1 NM_007616_at) of the same compound?
A: Yes

Q: And the Wilcoxon (gene #547 Cdkn2c NM_007671_at)?
A: No

Q: And the Kendall (gene #547 Cdkn2c NM_007671_at)?
A: Yes

Q: And the Wilcoxon (gene #548 Chd1 NM_007690_at)?
A: No

Q: And the Kendall (gene #548 Chd1 NM_007690_at)?
A: Yes

Q: And the Wilcoxon (gene #549 Cox8a NM_007750_at)?
A: No

Q: What about the Kendall (gene #549 Cox8a NM_007750_at) of the same compound?
A: Yes

Q: And the Wilcoxon (gene #550 Epc1 NM_007935_at)?
A: No

Q: And the Kendall (gene #550 Epc1 NM_007935_at)?
A: Yes

Q: And the Wilcoxon (gene #551 Mpzl2 NM_007962_at)?
A: No

Q: And the Kendall (gene #551 Mpzl2 NM_007962_at)?
A: Yes

Q: And the Wilcoxon (gene #552 Fnta NM_008033_at)?
A: No

Q: And the Kendall (gene #552 Fnta NM_008033_at)?
A: Yes

Q: And the Wilcoxon (gene #553 Gcdh NM_008097_at)?
A: No

Q: What about the Kendall (gene #553 Gcdh NM_008097_at) of the same compound?
A: Yes

Q: And the Wilcoxon (gene #554 Gcnt2 NM_008105_at)?
A: No

Q: What about the Kendall (gene #554 Gcnt2 NM_008105_at) of the same compound?
A: Yes

Q: And the Wilcoxon (gene #555 Nr3c1 NM_008173_at)?
A: No

Q: And the Kendall (gene #555 Nr3c1 NM_008173_at)?
A: Yes

Q: And the Wilcoxon (gene #556 Hhex NM_008245_at)?
A: No

Q: What about the Kendall (gene #556 Hhex NM_008245_at) of the same compound?
A: Yes

From patent US20150307938A1, “METHOD TO IDENTIFY A NOVEL CLASS OF IMMUNOLOGIC ADJUVANTS” (Lancell, L.L.C., priority 2011, published 2015)
